Results from ChEMBL document CHEMBL3885881, “DrugMatrix”.

Organism: Rattus norvegicus
Experiment: DrugMatrix - Regimen: Daily Repeat
Type: toxicity, organism-based, Sprague-Dawley
Parameters: regimen Daily Repeat, gender Male, age 6-8 weeks
Conditions: in vivo, iv, vehicle 100 % SALINE; for ABSOLUTE BASOPHIL / ABSOLUTE EOSINOPHIL / ABSOLUTE LYMPHOCYTE / ABSOLUTE MONOCYTE / ABSOLUTE SEGMENTED NEUTROPHIL / BASOPHIL / EOSINOPHIL / ERYTHROCYTE COUNT / HEMATOCRIT / HEMOGLOBIN / LEUKOCYTE COUNT / LYMPHOCYTE / MEAN CORPUSCULAR HEMOGLOBIN / MEAN CORPUSCULAR HEMOGLOBIN CONCENTRATION / MEAN CORPUSCULAR VOLUME / MONOCYTE / NEUTROPHIL / NUCLEATED RED BLOOD CELLS / PLATELET COUNT: tissue Blood; for ALANINE AMINOTRANSFERASE / ALBUMIN / ALKALINE PHOSPHATASE / ASPARTATE AMINOTRANSFERASE / BLOOD UREA NITROGEN / CARBON DIOXIDE / CHLORIDE / CHOLESTEROL / CREATINE PHOSPHOKINASE / CREATININE / GLUCOSE / LACTATE DEHYDROGENASE / LIPASE / PHOSPHORUS / POTASSIUM / SODIUM / TOTAL BILIRUBIN / URIC ACID / TOTAL PROTEIN: tissue Plasma
[1] = 400 mg/kg, 72 h, dose level Low, time 3 day
[2] = 400 mg/kg, 120 h, dose level Low, time 5 day
[3] = 1200 mg/kg, 72 h, dose level M1, time 3 day
[4] = 1200 mg/kg, 120 h, dose level M1, time 5 day
[5] = 1800 mg/kg, 72 h, dose level High, time 3 day

## NC(CO)(CO)CO [TROMETHAMINE]
[1]
  ABSOLUTE BASOPHIL: 0 CELLS/uL
  ABSOLUTE EOSINOPHIL: 233.33 CELLS/uL
  ABSOLUTE LYMPHOCYTE: 15317.33 CELLS/uL
  ABSOLUTE MONOCYTE: 347.33 CELLS/uL
  ABSOLUTE SEGMENTED NEUTROPHIL: 1468.67 CELLS/uL
  BASOPHIL: 0%
  EOSINOPHIL: 1.33%
  ERYTHROCYTE COUNT: 5.74 x10E6/uL
  HEMATOCRIT: 36.9%
  HEMOGLOBIN: 13.67 G/DL
  LEUKOCYTE COUNT: 17.37 x10E3/uL
  LYMPHOCYTE: 88.33%
  MEAN CORPUSCULAR HEMOGLOBIN: 23.87 pg
  MEAN CORPUSCULAR HEMOGLOBIN CONCENTRATION: 37.03 G/DL
  MEAN CORPUSCULAR VOLUME: 64.37 fL
  MONOCYTE: 2%
  NEUTROPHIL: 8.33%
  NUCLEATED RED BLOOD CELLS: 0 /100WBC
  PLATELET COUNT: 1402.67 x10E3/uL
  ALANINE AMINOTRANSFERASE: 55.67 u/L
  ALBUMIN: 4.27 G/DL
  ALKALINE PHOSPHATASE: 354.33 u/L
  ASPARTATE AMINOTRANSFERASE: 97 u/L
  BLOOD UREA NITROGEN: 17.67 mg/dL
  CARBON DIOXIDE: 20 mmol/L
  CHLORIDE: 107 MEQ/L
  CHOLESTEROL: 81.67 mg/dL
  CREATINE PHOSPHOKINASE: 249.33 u/L
  CREATININE: 0.23 mg/dL
  GLUCOSE: 184.67 mg/dL
  LACTATE DEHYDROGENASE: 286.33 u/L
  LIPASE: 9.33 u/L
  PHOSPHORUS: 14.23 mg/dL
  POTASSIUM: 7.13 MEQ/L
  SODIUM: 150.03 MEQ/L
  TOTAL BILIRUBIN: 0.23 mg/dL
  URIC ACID: 2.83 mg/dL
[2]
  ABSOLUTE BASOPHIL: 0 CELLS/uL
  ABSOLUTE EOSINOPHIL: 193.67 CELLS/uL
  ABSOLUTE LYMPHOCYTE: 13973.67 CELLS/uL
  ABSOLUTE MONOCYTE: 314 CELLS/uL
  ABSOLUTE SEGMENTED NEUTROPHIL: 1218.67 CELLS/uL
  BASOPHIL: 0%
  EOSINOPHIL: 1.33%
  ERYTHROCYTE COUNT: 5.88 x10E6/uL
  HEMATOCRIT: 36.53%
  HEMOGLOBIN: 13.73 G/DL
  LEUKOCYTE COUNT: 15.7 x10E3/uL
  LYMPHOCYTE: 89%
  MEAN CORPUSCULAR HEMOGLOBIN: 23.33 pg
  MEAN CORPUSCULAR HEMOGLOBIN CONCENTRATION: 37.6 G/DL
  MEAN CORPUSCULAR VOLUME: 62.13 fL
  MONOCYTE: 2%
  NEUTROPHIL: 7.67%
  NUCLEATED RED BLOOD CELLS: 0 /100WBC
  PLATELET COUNT: 1369.33 x10E3/uL
  ALANINE AMINOTRANSFERASE: 59 u/L
  ALBUMIN: 4.13 G/DL
  ALKALINE PHOSPHATASE: 352 u/L
  ASPARTATE AMINOTRANSFERASE: 100.33 u/L
  BLOOD UREA NITROGEN: 18 mg/dL
  CARBON DIOXIDE: 26.67 mmol/L
  CHLORIDE: 105 MEQ/L
  CHOLESTEROL: 63.33 mg/dL
  CREATINE PHOSPHOKINASE: 312.67 u/L
  CREATININE: 0.17 mg/dL
  GLUCOSE: 152 mg/dL
  LACTATE DEHYDROGENASE: 490 u/L
  LIPASE: 8 u/L
  PHOSPHORUS: 13.27 mg/dL
  POTASSIUM: 6.29 MEQ/L
  SODIUM: 147.27 MEQ/L
  TOTAL BILIRUBIN: 0.13 mg/dL
  TOTAL PROTEIN: 6.23 G/DL
  URIC ACID: 1.6 mg/dL
[3]
  ABSOLUTE BASOPHIL: 0 CELLS/uL
  ABSOLUTE EOSINOPHIL: 114.67 CELLS/uL
  ABSOLUTE LYMPHOCYTE: 5662 CELLS/uL
  ABSOLUTE MONOCYTE: 0 CELLS/uL
  ABSOLUTE SEGMENTED NEUTROPHIL: 823.33 CELLS/uL
  BASOPHIL: 0%
  EOSINOPHIL: 1.67%
  ERYTHROCYTE COUNT: 4.96 x10E6/uL
  HEMATOCRIT: 32.13%
  HEMOGLOBIN: 12.23 G/DL
  LEUKOCYTE COUNT: 6.6 x10E3/uL
  LYMPHOCYTE: 86%
  MEAN CORPUSCULAR HEMOGLOBIN: 24.7 pg
  MEAN CORPUSCULAR HEMOGLOBIN CONCENTRATION: 38.17 G/DL
  MEAN CORPUSCULAR VOLUME: 64.73 fL
  MONOCYTE: 0%
  NEUTROPHIL: 12.33%
  NUCLEATED RED BLOOD CELLS: 0 /100WBC
  PLATELET COUNT: 1106 x10E3/uL
  ALANINE AMINOTRANSFERASE: 48.67 u/L
  ALBUMIN: 4.2 G/DL
  ALKALINE PHOSPHATASE: 396.33 u/L
  ASPARTATE AMINOTRANSFERASE: 124 u/L
  BLOOD UREA NITROGEN: 14.67 mg/dL
  CARBON DIOXIDE: 28 mmol/L
  CHLORIDE: 101.67 MEQ/L
  CHOLESTEROL: 82 mg/dL
  CREATINE PHOSPHOKINASE: 177.33 u/L
  CREATININE: 0.16 mg/dL
  GLUCOSE: 166.33 mg/dL
  LACTATE DEHYDROGENASE: 103 u/L
  LIPASE: 8.33 u/L
  PHOSPHORUS: 11.1 mg/dL
  POTASSIUM: 5.72 MEQ/L
  SODIUM: 148.3 MEQ/L
  TOTAL BILIRUBIN: 0.1 mg/dL
  TOTAL PROTEIN: 6.23 G/DL
  URIC ACID: 0.7 mg/dL
[4]
  ABSOLUTE BASOPHIL: 0 CELLS/uL
  ABSOLUTE EOSINOPHIL: 321 CELLS/uL
  ABSOLUTE LYMPHOCYTE: 13922 CELLS/uL
  ABSOLUTE MONOCYTE: 0 CELLS/uL
  ABSOLUTE SEGMENTED NEUTROPHIL: 2357 CELLS/uL
  BASOPHIL: 0%
  EOSINOPHIL: 2%
  ERYTHROCYTE COUNT: 5.71 x10E6/uL
  HEMATOCRIT: 35.9%
  HEMOGLOBIN: 13.45 G/DL
  LEUKOCYTE COUNT: 16.6 x10E3/uL
  LYMPHOCYTE: 84%
  MEAN CORPUSCULAR HEMOGLOBIN: 23.6 pg
  MEAN CORPUSCULAR HEMOGLOBIN CONCENTRATION: 37.45 G/DL
  MEAN CORPUSCULAR VOLUME: 62.95 fL
  MONOCYTE: 0%
  NEUTROPHIL: 14%
  NUCLEATED RED BLOOD CELLS: 0 /100WBC
  PLATELET COUNT: 1326 x10E3/uL
  ALANINE AMINOTRANSFERASE: 51.5 u/L
  ALBUMIN: 4.3 G/DL
  ALKALINE PHOSPHATASE: 460.5 u/L
  ASPARTATE AMINOTRANSFERASE: 147 u/L
  BLOOD UREA NITROGEN: 19.5 mg/dL
  CARBON DIOXIDE: 26.5 mmol/L
  CHLORIDE: 105.5 MEQ/L
  CHOLESTEROL: 61.5 mg/dL
  CREATINE PHOSPHOKINASE: 173 u/L
  CREATININE: 0.2 mg/dL
  GLUCOSE: 161 mg/dL
  LACTATE DEHYDROGENASE: 131.5 u/L
  LIPASE: 7.5 u/L
  PHOSPHORUS: 12.6 mg/dL
  POTASSIUM: 5.85 MEQ/L
  SODIUM: 148.4 MEQ/L
  TOTAL BILIRUBIN: 0.15 mg/dL
  TOTAL PROTEIN: 6.15 G/DL
  URIC ACID: 1.35 mg/dL
[5]
  ABSOLUTE BASOPHIL: 0 CELLS/uL
  ABSOLUTE EOSINOPHIL: 0 CELLS/uL
  ABSOLUTE LYMPHOCYTE: 11188.5 CELLS/uL
  ABSOLUTE MONOCYTE: 305.5 CELLS/uL
  ABSOLUTE SEGMENTED NEUTROPHIL: 3356 CELLS/uL
  BASOPHIL: 0%
  EOSINOPHIL: 0%
  ERYTHROCYTE COUNT: 5.2 x10E6/uL
  HEMATOCRIT: 31.8%
  HEMOGLOBIN: 12.25 G/DL
  LEUKOCYTE COUNT: 14.85 x10E3/uL
  LYMPHOCYTE: 75%
  MEAN CORPUSCULAR HEMOGLOBIN: 23.65 pg
  MEAN CORPUSCULAR HEMOGLOBIN CONCENTRATION: 38.5 G/DL
  MEAN CORPUSCULAR VOLUME: 61.4 fL
  MONOCYTE: 2%
  NEUTROPHIL: 23%
  NUCLEATED RED BLOOD CELLS: 0 /100WBC
  PLATELET COUNT: 1215.5 x10E3/uL
  ALANINE AMINOTRANSFERASE: 64.5 u/L
  ALBUMIN: 4.05 G/DL
  ALKALINE PHOSPHATASE: 290 u/L
  ASPARTATE AMINOTRANSFERASE: 190 u/L
  BLOOD UREA NITROGEN: 19.5 mg/dL
  CARBON DIOXIDE: 24.5 mmol/L
  CHLORIDE: 105.5 MEQ/L
  CHOLESTEROL: 107 mg/dL
  CREATINE PHOSPHOKINASE: 336.5 u/L
  CREATININE: 0.22 mg/dL
  GLUCOSE: 149.5 mg/dL
  LACTATE DEHYDROGENASE: 446 u/L
  LIPASE: 8.5 u/L
  PHOSPHORUS: 13.45 mg/dL
  POTASSIUM: 6.05 MEQ/L
  SODIUM: 147.25 MEQ/L
  TOTAL BILIRUBIN: 0.2 mg/dL
  TOTAL PROTEIN: 6.15 G/DL
  URIC ACID: 0.95 mg/dL
